Results taken from patent US20230021483A1, “[…] […] METHOD AND CLASSIFICATION OF PHARMACEUTICAL COMPONENTS BY USING TRANSCRIPTOMES” (National Institutes of Biomedical Innovation, Health and …, priority 2016, published 2023).
Peptide text beside a SMILES is read from it. * marks the point of attachment. X1 = CCCCCCCCCCCCCCCC(=O)OCC(C*)OC(=O)CCCCCCCCCCCCCCC; Palmitoyl = CCCCCCCCCCCCCCCC(=O)*

Tests used:
Format in all cases: in vivo, C57BL/6 mice
circulating blood cells = assay: Hematological cell count of peripheral blood 6 h after adjuvant administration (VetScan HMII); conditions: mouse, in vivo
Experimental: Take about 200 μL of blood from the retro-orbital venous plexus with a non-heparinized capillary tube and place the blood into a 1.5 mL tube comprising 2 μL of 10% EDTA-2K for hematological testing. Thoroughly mix the sample by gentle tapping. Stored at room temperature until hematological testing.
The hematological cell count was found using VetScan HMII (Abaxis). 50 μl of EDTA-2K blood sample was diluted by adding 250 μl of saline. Measurements are taken with VetScan HMII by following the instruction.
In a preliminary experiment, FCA and ALM were tested at different points up to 72 hours. […] At 6 hours after adjuvant administration, LV, SP, and LN (both sides) were removed to study the gene expression thereof by using Affimetrix Genechip microarray system (Affymetrix). The sampled organs were each placed in a tube containing RNAlater. The tube was maintained at 4° C. overnight, and stored at −80° C. until use. Blood was also collected after 6 hours from adjuvant administration for general hematological testing. About 200 μL of blood was taken from the retro-orbital venous plexus with a non-heparinized capillary tube and placed into a 1.5 mL tube comprising 2 μL of 10% EDTA-2K for hematological testing. The hematological cell count was found using VetScan HMII (Abaxis). 50 μl of EDTA-2K blood sample was diluted by adding 250 μl of saline. Measurements were taken with VetScan HMII by following the instruction.
The effect of adjuvant administration with respect to the changes in several hematological parameters was investigated. The following parameters were studied: white blood cells (WBC), lymphocytes (LYM), monocytes (MON), granulocytes (GRA), relative (%) content of lymphocytes (LY %), relative (%) content of monocytes (MO %), relative (%) content of granulocytes (GR %), red blood cells (RBC), hemoglobins (Hb, HGB), hematocrits (HCT), mean corpuscular volume (MCV), mean corpuscular hemoglobins (MCH), mean corpuscular hemoglobin concentration (MCHC), red blood cell distribution width (RDW), platelets (PLT), platelet concentration (PCT), mean platelet volume (MPV), and platelet distribution width (PDW).

[1] = test system: inguinal lymph nodes (LN); assay: Whole organ transcriptome (GeneChip microarray) of draining inguinal lymph nodes 6 h after adjuvant administration: sDEGs, gene modules, hierarchical clustering; as to adjuvant group (cluster) in LN: key: G1 (interferon signaling); G2 (metabolism of lipids and lipoproteins); G3 (response to stress); G4 (response to wounding); G5 (phosphate-containing compound metabolic process); G6 (phagosome); conditions: for Number of gene probes with statistically significant changes (sDEGs), LN, Down / Number of gene probes with statistically significant changes (sDEGs), LN, Up: i.d. administration, 6 h after adjuvant; for Number of gene probes with statistically significant changes (sDEGs), LN, Down: fold change <0.667, p<0.01, customized PA call=1; for Number of gene probes with statistically significant changes (sDEGs), LN, Up: fold change >1.5, p<0.01, customized PA call=1
spleen (SP) = assay: Whole organ transcriptome (GeneChip microarray) of spleen 6 h after adjuvant administration: sDEGs, hierarchical clustering; as to adjuvant group (cluster) in SP: key: G1 (interferon signaling); G2 (metabolism of lipids and lipoproteins); G3 (response to stress); G4 (response to wounding); G5 (phosphate-containing compound metabolic process); G6 (phagosome); conditions: for Number of gene probes with statistically significant changes (sDEGs), SP, Down / Number of gene probes with statistically significant changes (sDEGs), SP, Up: i.d. administration; for Number of gene probes with statistically significant changes (sDEGs), SP, Down: fold change <0.667, p<0.01, customized PA call=1, 6 h after adjuvant; for Number of gene probes with statistically significant changes (sDEGs), SP, Up: fold change >1.5, p<0.01, customized PA call=1, 6 h after adjuvant
liver (LV) = assay: Whole organ transcriptome (GeneChip microarray) of liver 6 h after adjuvant administration: sDEGs, hierarchical clustering; as to adjuvant group (cluster) in LV: key: G1 (interferon signaling); G2 (metabolism of lipids and lipoproteins); G3 (response to stress); G4 (response to wounding); G5 (phosphate-containing compound metabolic process); G6 (phagosome); conditions: liver; for Number of gene probes with statistically significant changes (sDEGs), LV, Down / Number of gene probes with statistically significant changes (sDEGs), LV, Up: i.d. administration, 6 h after adjuvant; for Number of gene probes with statistically significant changes (sDEGs), LV, Down: fold change <0.667, p<0.01, customized PA call=1; for Number of gene probes with statistically significant changes (sDEGs), LV, Up: fold change >1.5, p<0.01, customized PA call=1
[2] = test system: preferentially upregulated genes in LV, SP, LN; assay: Z-score-based differential gene expression analysis (adjuvant group- or adjuvant-associated genes, 40 module mapping, TargetMine annotation); conditions: z-score selected genes; TargetMine and IPA upstream cytokine analyses
Excerpt: Each sample's FC value was converted into a z-score on a gene basis by using the entire data set for each organ. The Z-score of the triplicates of interest were summed for each adjuvant. For example, the three sample z-score in the LV sample following cdiGMP administration was summed on a gene-by-gene basis, after which the summed scores of >3 genes were selected as relatively preferentially expressed genes in the LV after cdiGMP administration. The following threshold was applied for selections. […] G2^LV: ALM_IP(z>1) & bCD(z>1) & ENDCN(z>1) & FCA(z>1). […] G4^LV: MALP2s(z>3). […] G2^SP: ENDCN_x2+ENDCN_x3(z>2) & ALM_IP(z>3) & bCD(z>3). […] G4^SP: ADX_ID_x2+ADX_ID_x3(z>2) & ADX_IP(z>3) & MALP2s(z>3). […] G2^LN: bCD(z>3) & FCA(z>3). […] G5^LN: K3(z>1.5) & K3SPG_x1+K3SPG_x2(z>1) & D35_x1+D35_x3(z>1). G6^LN: AddaVax(z>3).

LV, SP and LNs = assay: Whole organ transcriptome across organs (adjuvant gene space): gene responses and adjuvant grouping; conditions: hierarchical clustering; LV, SP and/or LNs

Row | monocytosis (monocytes in blood) (circulating blood cells) | leukopenia (circulating blood cells) | lymphopenia (circulating blood cells) | Compound | Number of gene probes with statistically significant changes (sDEGs), LN, Down ([1]; lymph node) | Number of gene probes with statistically significant changes (sDEGs), LN, Up ([1]; lymph node) | Number of gene probes with statistically significant changes (sDEGs), SP, Down (spleen (SP)) | Number of gene probes with statistically significant changes (sDEGs), SP, Up (spleen (SP)) | Number of gene probes with statistically significant changes (sDEGs), LV, Down (liver (LV)) | Number of gene probes with statistically significant changes (sDEGs), LV, Up (liver (LV)) | module M40^LN (immune system process; dendritic cells, macrophages, neutrophils, stromal cells) ([1]; LN, 6 h) | adjuvant group (cluster) in LN ([1]; hierarchical clustering, lymph node) | adjuvant group-associated biological features [2] | adjuvant group (cluster) in SP (spleen (SP); hierarchical clustering) | adjuvant group (cluster) in LV (liver (LV); hierarchical clustering) | adjuvant group (cluster) within the adjuvant gene space (LV, SP and LNs)
1 | clearly induced |  |  | CCCCCCCCCCCCCCCC(=O)N[C@@H](CSCC(COC(=O)CCCCCCCCCCCCCCC)OC(=O)CCCCCCCCCCCCCCC)C(=O)N[C@@H](CO)C(=O)N[C@@H](CCCCN)C(=O)N[C@@H](CCCCN)C(=O)N[C@@H](CCCCN)C(=O)N[C@@H](CCCCN)C(=O)O (stereo partly drawn) [Pam3CSK4, Pam-3-Cys-Ser-Lys-Lys-Lys-Lys] (Palmitoyl-C(X1)SKKKK-OH) |  |  |  |  |  |  |  |  |  |  |  | 
2 |  |  |  | Nc1nc2c(ncn2[C@@H]2O[C@@H]3COP(=O)(O)O[C@H]4[C@@H](O)[C@H](n5cnc6c(=O)[nH]c(N)nc65)O[C@@H]4COP(=O)(O)O[C@H]3[C@H]2O)c(=O)[nH]1 [cdlGMP] | 908 | 1579 | 261 | 707 | 218 | 280 |  |  |  |  |  | 
3 |  | caused leukopenia | strongly induced | Polyinosine-polycytidylic acid [PolyIC] | 1460 | 2203 | 738 | 1360 | 1122 | 516 | strongly induced | G1 | strongly associated with type I and type II interferon responses | G1 | G1 | group (G) 1
